Measurements as given in article PMC7353089, “The Hepatotoxicity of Alantolactone and Germacrone: Their Influence on Cholesterol and Lipid Metabolism in Differentiated HepaRG Cells” (Nutrients, 2020).
Entries after “also recorded” stand apart in the source; their conditions may differ. Read-outs that look alike come from different tables or passages of the source.

How the values were obtained:
[1] = tested on: dHepaRG cells; test: Lactate dehydrogenase (LDH) leakage; type: cell-based, human; details: dHepaRG cell viability, read-out: IC50 ± SD, LDH
Method: Cryopreserved HepaRG cells were obtained from Biopredic International (Rennes, France). Undifferentiated cells were seeded according to the supplier protocols in 96-well plates for the viability assays, and in 6-well plates for the mRNA and western blot measurements. The cells were cultured for two weeks in Williams E Medium with GlutaMAX™ (Invitrogen, Paisley, UK) supplemented with 10% fetal bovine serum, 2 mM glutamine, 100 IU/mL penicillin, 100 μg/mL streptomycin, 5 μg/mL insulin, and 50 μM hydrocortisone hemisuccinate. The cells were afterwards cultured for another 2-week period in the same medium supplemented with 1.7% DMSO. The medium was replaced every 2–3 days.
Lactate dehydrogenase (LDH) leakage was measured using the Invitrogen™ CyQUANT™ LDH Cytotoxicity Assay Kit according to the manufacturer guidelines using 96-well plates. After 24 and 72-h exposure, the culture medium was collected and diluted ten times by distilled water. Fifty µL of reaction mixture was added to each sample well and mixed. After 30 min of incubation at room temperature, 50 µL of stop solution was added to each well. To determine LDH activity, 680-nm absorbance value (background) was subtracted from the 490-nm absorbance before calculation of % cytotoxicity. Cell lysate was set as 100% of the LDH leakage.

[2] = tested on: dHepaRG cells; test: ROS production (H2DCFDA probe); type: cell-based, human; details: for lowest measured concentration leading to oxidative stress: ROS production; for ROS production: various concentrations, 1, 6, 12 and 24 h, H2-DCFDA probe
Method: The production of reactive oxygen species (ROS) was measured using 2′,7′-dichlorofluorescin diacetate probe (H2DCFDA). The cells were preincubated with 10 µM H2DCFDA for 30 min in the dark. Afterwards, the cells were washed with PBS and sesquiterpenes were added to a Hank’s Balanced Salt Solution (HBSS) buffer. Fluorescence was measured after 1, 6, 12, and 24 h with excitation and emission wavelengths of 490 nm and 530 nm, respectively, using the Tecan Infinite M200. Hydrogen peroxide (300 µM) served as a positive control.

[3] = tested on: G6PC mRNA; test: RT-qPCR mRNA expression in dHepaRG cells; type: cell-based, human; details: single exposure, also at other than toxic concentrations
Method: (§2) Three concentrations were selected for each compound (non-toxic, non-toxic/slightly toxic and toxic). […] The expression changes of genes and proteins related to cholesterol metabolism were measured in both single and multiple exposure experiments.
(§3) All treatments were performed in triplicates and every experiment was performed three times. The cells were washed twice with ice cold phosphate-buffered saline (PBS), scrapped and stored at −80 °C until use. Total RNA from cells was isolated using TriReagent according to the manufacturer’s instructions (Biotech, Prague, Czech Republic). The purified RNA was dissolved in 40 µL of diethyl pyrocarbonate (DEPC)-treated water (0.01% DEPC in HPLC water, autoclaved) and stored at −80 °C. The measurement of absorbance at 260 and 280 nm using the NanoDrop ND-1000 UV–VIS Spectrophotometer (Thermo Fisher Scientific, Pardubice, Czech Republic) was used to determine RNA yields and purity. […] Fluorescence data were recorded at the end of each amplification step. Relative expression levels of the target genes were calculated as fold changes in triplicates for each group using the 2^−ΔΔCt method [28] by normalization to the geometric mean of the Ct values of Sdha and Ywhaz, which were used as reference genes.

[4] = tested on: TFRC mRNA; test: RT-qPCR mRNA expression in dHepaRG cells; type: cell-based, human; details: single exposure, also at other than toxic concentrations
Method: as §2, §3

[5] = tested on: ICAM-1 mRNA; test: RT-qPCR mRNA expression in dHepaRG cells; type: cell-based, human; details: the highest concentration
Method: as §2, §3

[6] = tested on: CYP19A1 mRNA; test: RT-qPCR mRNA expression in dHepaRG cells; type: cell-based, human
Method: (§4) Three concentrations were selected for each compound (non-toxic, non-toxic/slightly toxic and toxic). The cholesterol level of the dHepaRG cells was measured after a multiple exposure of the highest non-toxic concentrations of tested compounds. […] The expression changes of genes and proteins related to cholesterol metabolism were measured in both single and multiple exposure experiments.
All treatments were performed in triplicates and every experiment was performed three times. The cells were washed twice with ice cold phosphate-buffered saline (PBS), scrapped and stored at −80 °C until use. Total RNA from cells was isolated using TriReagent according to the manufacturer’s instructions (Biotech, Prague, Czech Republic). The purified RNA was dissolved in 40 µL of diethyl pyrocarbonate (DEPC)-treated water (0.01% DEPC in HPLC water, autoclaved) and stored at −80 °C. The measurement of absorbance at 260 and 280 nm using the NanoDrop ND-1000 UV–VIS Spectrophotometer (Thermo Fisher Scientific, Pardubice, Czech Republic) was used to determine RNA yields and purity. Subsequently, the RNA (4 µg) was treated with 2 U of DNase I (New England Biolabs, Ipswich, MA, USA) in a final volume of 30 µL for 25 min at 37 °C, 1.5 µL of 0.1 M ethylenediaminetetraacetic acid was added and the DNAse was inactivated by heat (5 min at 75 °C). The solution was diluted to a concentration of 0.1 µg/µL. The DNAse treated RNA was stored at −80 °C until further analyses. The first strand cDNA was synthesized from 800 ng of total RNA and 1 µL of 50 µM random hexamers (Generi Biotech, Hradec Kralove, Czech Republic) using ProtoScript II reverse transcriptase (New England Biolabs, Ipswich, MA, USA). After the initial heat denaturation of total RNA (65 °C for 5 min), 4 µL of 5× ProtoScript II RT Reaction Buffer, 2 µL of 10× dithiothreitol (DTT), 2 µL of deoxynucleotide (dNTP) Mix 5 mM, 3.5 µL of H2O, and 0.5 µL of ProtoScript II 200 U/µL were added and mixed by pipetting. The reactions (20 µL) were incubated for 10 min at 25 °C, for 50 min at 42 °C, and for 5 min at 80 °C. The obtained cDNAs were diluted 1:6 by DEPC water. The qPCR analyses were carried out using QuantStudio 6 Flex (Applied Biosystems, Foster City, CA, USA) with SYBR green I (Xceed qPCR SG Mix, Institute of Applied Biotechnologies, Prague, Czech Republic) detection according to the manufacturer’s protocol. […] Fluorescence data were recorded at the end of each amplification step. Relative expression levels of the target genes were calculated as fold changes in triplicates for each group using the 2^−ΔΔCt method [28] by normalization to the geometric mean of the Ct values of Sdha and Ywhaz, which were used as reference genes.

[7] = tested on: FASN mRNA; test: RT-qPCR mRNA expression in dHepaRG cells; type: cell-based, human; details: single exposure, 6, 12 and 24 h
Method: as §4, §3

[8] = tested on: GPAM mRNA; test: RT-qPCR mRNA expression in dHepaRG cells; type: cell-based, human; details: single exposure, 6, 12 and 24 h
Method: (§5) Three concentrations were selected for each compound (non-toxic, non-toxic/slightly toxic and toxic).
(§6) All treatments were performed in triplicates and every experiment was performed three times. The cells were washed twice with ice cold phosphate-buffered saline (PBS), scrapped and stored at −80 °C until use. Total RNA from cells was isolated using TriReagent according to the manufacturer’s instructions (Biotech, Prague, Czech Republic). The purified RNA was dissolved in 40 µL of diethyl pyrocarbonate (DEPC)-treated water (0.01% DEPC in HPLC water, autoclaved) and stored at −80 °C. The measurement of absorbance at 260 and 280 nm using the NanoDrop ND-1000 UV–VIS Spectrophotometer (Thermo Fisher Scientific, Pardubice, Czech Republic) was used to determine RNA yields and purity. Subsequently, the RNA (4 µg) was treated with 2 U of DNase I (New England Biolabs, Ipswich, MA, USA) in a final volume of 30 µL for 25 min at 37 °C, 1.5 µL of 0.1 M ethylenediaminetetraacetic acid was added and the DNAse was inactivated by heat (5 min at 75 °C). […] Fluorescence data were recorded at the end of each amplification step. Relative expression levels of the target genes were calculated as fold changes in triplicates for each group using the 2^−ΔΔCt method [28] by normalization to the geometric mean of the Ct values of Sdha and Ywhaz, which were used as reference genes.

[9] = tested on: SREBP-1c mRNA; test: RT-qPCR mRNA expression in dHepaRG cells; type: cell-based, human
Method: as §5, §6

[10] = tested on: PPARα mRNA; test: RT-qPCR mRNA expression in dHepaRG cells; type: cell-based, human
Method: as §5, §6

[11] = tested on: HMGCR; test: Western blot protein level in dHepaRG cells; type: cell-based, human
Method: (§1) All the treatments were performed in triplicates. Protein concentration was measured using the bicinchoninic acid (BCA) protein assay (Sigma Aldrich, Prague, Czech Republic) according to the manufacturer’s instructions. The proteins were loaded onto a 10% sodium dodecyl sulfate (SDS; w/v)–polyacrylamide gel (with 4% stacking gel) and separated by SDS-PAGE electrophoresis. The proteins were transferred onto a nitrocellulose membrane using wet blot (100 V, 90 min). The membrane blocking was performed in a 5% non-fat dry milk/TRIS-buffered saline-Tween-20 (TBS-T) solution at room temperature for 2 h. Incubation with primary antibodies was accomplished overnight at 10 °C. β-actin was used as housekeeping protein (the list of primary antibodies in Table S2). Afterwards, the membrane was washed with 0.05% TBS-T solution for 6 × 5 min, incubated with respective secondary antibodies conjugated with horseradish peroxidase (bovine anti-rabbit (sc2370, Santa Cruz Biotechnology, Santa Cruz, CA, USA) at room temperature for 1.5 h, and rinsed with TBS-T solution for 6 × 5 min. Visualization of protein bands was carried out using a chemiluminescence kit (GE Healthcare, Buckinghamshire, UK).

[12] = tested on: ICAM-1; test: Western blot protein level in dHepaRG cells; type: cell-based, human
Method: as §1

[13] = tested on: NF-κB; test: Western blot protein level in dHepaRG cells; type: cell-based, human
Method: as §1

[14] = tested on: RIP1; test: Western blot protein level in dHepaRG cells; type: cell-based, human
Method: as §1

[15] = tested on: SREBP-2 (F); test: Western blot protein level in dHepaRG cells; type: cell-based, human; details: single exposure
Method: as §1

[16] = tested on: STAT3; test: Western blot protein level in dHepaRG cells; type: cell-based, human; details: highest tested concentration (equal to IC50)
Method: as §1

[17] = tested on: p-STAT3(Y705); test: Western blot protein level in dHepaRG cells; type: cell-based, human; details: for phosphorylated p-STAT3(Y705) protein amount: 12-h exposure
Method: as §1

[18] = tested on: MCF-7; details: read-out: Previously Reported IC50 Values (24 h), cited from earlier work
[19] = tested on: MDA-MB-231; details: MDA-MB-231, 24 h; read-out: Previously Reported IC50 Values (24 h); cited from earlier work
[20] = tested on: U87; details: U87, 24 h, read-out: Previously Reported IC50 Values (24 h), cited from earlier work
[21] = single exposure, 6, 12 and 24 h
[22] = single exposure, toxic concentration after 24 h
[23] = the higher concentrations after 12 and 24-h exposure

SMILES: C=C1C(=O)O[C@@H]2C[C@@]3(C)CCC[C@H](C)C3=C[C@H]12 [ATL, alantolactone]
- IC50 ([1]; 24 h single exposure): 61.1 ± 1.8 µM
- IC50 ([1]; 72 h single exposure): 57.8 ± 2 µM
- lowest measured concentration leading to oxidative stress [2]: 20 µM
- ROS production [2]: significant time- and concentration-dependent enhancement of ROS production
- G6PC mRNA expression [3]: dysregulated
- TFRC mRNA expression [4]: inhibited
- ICAM-1 mRNA amount ([5]; 12-h and 24-h exposure): induced
- CYP19A1 mRNA level ([6]; 20 and 40 µM, all the studied intervals (6, 12, 24 h)): induced
- FASN mRNA level [7]: significantly decreased
- GPAM mRNA level [8]: significantly decreased
- SREBP-1c mRNA [9, 21]: dysregulated
- PPARα mRNA expression [10, 22]: inhibited
- HMGCR protein amount ([11]; single exposure, after 12 and 24 h): decrease
- HMGCR protein level ([11]; single exposure, the higher concentrations after 12 and 24-h exposure): decrease
- ICAM-1 protein amount ([12]; all concentrations after 12-h exposure): significantly decreased
- NF-κB protein level ([13]; 24-h exposure, the highest concentration): significant decrease
- RIP1 protein expression ([14]; 12-h exposure): decreased level
- RIP1 protein expression ([14]; 24-h exposure, highest concentration): decreased
- functional SREBP-2 (F) protein level ([15]; the highest concentration): significantly decreased
- total STAT3 protein level [16]: decrease
- phosphorylated p-STAT3(Y705) protein amount ([17]; all concentrations tested): decreased; also recorded: inhibition
- IC50 ([18]; MCF-7, 24 h): 36 µM
- IC50 [19]: > 15 µM
- IC50 ([20]; ref 10): 20 µM
- IC50 ([20]; ref 34): 33 µM

SMILES: CC(C)=C1C/C=C(\C)CC/C=C(\C)CC1=O [GER, germacrone]
- IC50 ([1]; 24 h single exposure): 244 ± 15.5 µM
- IC50 ([1]; 72 h single exposure): 234 ± 13.4 µM
- lowest measured concentration leading to oxidative stress [2]: 100 µM
- ROS production [2]: significant time- and concentration-dependent enhancement of ROS production
- G6PC mRNA expression [3]: dysregulated
- TFRC mRNA expression [4]: inhibited
- ICAM-1 mRNA amount ([5]; 6-h and 12-h exposure): induced
- CYP19A1 mRNA level ([6]; 100 µM, 24-h exposure): induced the level by nearly two-fold; also recorded: significantly induced
- CYP19A1 mRNA level ([6]; both higher concentrations, 6- and 12-hour exposure): decreased
- FASN mRNA level [7]: significantly decreased
- GPAM mRNA level [8]: significantly decreased
- SREBP-1c mRNA [9, 22]: inhibited
- PPARα mRNA expression [10, 21]: no effect
- HMGCR protein level ([11]; multiple exposure: four applications every 24 h, analyzed 12 h after the last, 30 μM ATL, 100 μM GER, 20 μM LOV): slight decrease
- HMGCR protein amount ([11]; single exposure, only after 12-h exposure): decrease
- HMGCR protein level ([11]; single exposure, the highest concentration after 12-h exposure): decrease
- ICAM-1 protein amount [12, 23]: significantly decreased
- NF-κB protein level ([13]; 12-h exposure): decreased level
- RIP1 protein expression ([14]; 12-h exposure): decreased level
- functional SREBP-2 (F) protein level ([15]; 12-h exposure): increase
- functional SREBP-2 (F) protein level ([15]; 24-h exposure): no change in protein level
- total STAT3 protein level [16]: decrease
- phosphorylated p-STAT3(Y705) protein amount ([17]; both higher concentrations): decreased
- p-STAT3 (Y705) phosphorylation [17, 23]: inhibition
- IC50 ([18]; MCF7, 24 h, ref 11): 195 µM
- IC50 ([18]; MCF7, 24 h, ref 37): > 200 µM
- IC50 [19]: 244 µM
- IC50 ([20]; ref 36): 175 µM
